According to patent publication US20070128217A1 (priority 2003, published 2007):

How the values were obtained:
[1] = test system: antibodies in sera from SARS patients (sera 1a, 1b, 2, 6, 37, 62, London, SARS-yellow, SARS-green); assay type: binding, human; set-up: Binding of serum 6 to linear peptides of protein X1 of SARS-CoV Urbani / Binding of serum 37 to linear peptides of protein X1 of SARS-CoV Urbani / Binding of serum 6 to looped/cyclic peptide (PEPSCAN-ELISA) / Binding of serum 37 to looped/cyclic peptide (PEPSCAN-ELISA) / Binding of serum 37 to looped/cyclic peptides of protein X1 of SARS-CoV Urbani / Binding of serum 6 to linear peptides of protein X2 / Binding of serum 37 to linear peptides of protein X2 / Binding of serum 37 to looped/cyclic peptides of protein X2 of SARS-CoV Urbani / Binding of serum 6 to linear peptides of protein M of SARS-CoV Urbani / Binding of serum 37 to linear peptides of protein M of SARS-CoV Urbani / Binding of serum 6 to looped/cyclic peptides of protein M of SARS-CoV Urbani / Binding of serum 37 to looped/cyclic peptides of protein M of SARS-CoV Urbani / Binding of serum 6 to linear peptides of protein X3 of SARS-CoV Urbani / Binding of serum 37 to linear peptides of protein X3 of SARS-CoV Urbani / Binding of serum 37 to looped/cyclic peptides of protein X3 of SARS-CoV Urbani / Binding of serum 6 to linear peptides of protein X4 of SARS-CoV Urbani / Binding of serum 37 to linear peptides of protein X4 of SARS-CoV Urbani / Binding of serum 37 to looped/cyclic peptides of protein X4 of SARS-CoV Urbani / Binding of serum 6 to linear peptides of protein X5 of SARS-CoV Urbani / Binding of serum 37 to linear peptides of protein X5 of SARS-CoV Urbani / Binding of serum 37 to looped/cyclic peptides of protein X5 of SARS-CoV Urbani / Binding of serum 6 to linear peptides of protein N of SARS-CoV Urbani / Binding of serum 37 to linear peptides of protein N of SARS-CoV Urbani / Binding of serum 6 to linear peptide (PEPSCAN-ELISA) / Binding of serum 1a to looped/cyclic peptides of protein N of SARS-CoV Urbani / Binding of serum 1b to looped/cyclic peptides of protein N of SARS-CoV Urbani / Binding of serum 2 to looped/cyclic peptides of protein N of SARS-CoV Urbani / Binding of serum 6 to looped/cyclic peptides of protein N of SARS-CoV Urbani / Binding of serum 37 to looped/cyclic peptides of protein N of SARS-CoV Urbani / Binding of serum 62 to looped/cyclic peptides of protein N of SARS-CoV Urbani / Binding of serum London to looped/cyclic peptides of protein N of SARS-CoV Urbani / Binding of serum SARS-green to looped/cyclic peptides of protein N of SARS-CoV Urbani: unit not given here
[2] = test system: control sera (pooled serum of ten healthy LUMC hospital workers; commercial negative donor pooled serum from the Dutch bloodbank); assay type: binding, human; set-up: Binding of Control serum LUMC to linear peptides / Binding of Control serum Blood-bank to linear peptides / Binding of Control serum LUMC to looped peptides / Binding of Control Serum Blood-Bank to Looped peptides / Binding of Control serum LUMC to linear peptides of the protein M of SARS-CoV Urbani / Binding of Control serum Blood-bank to linear peptides of the protein M of SARS-CoV Urbani / Binding of Control serum LUMC to looped peptides of the protein M of SARS-CoV Urbani / Binding of Control Serum Blood-Bank to Looped peptides of the protein M of SARS-CoV Urbani: unit not given here
[3] = test system: rabbit serum obtained by immunizing a rabbit with the SARS-CoV strain Frankfurt 1; assay type: binding; set-up: Binding of a rabbit serum to linear peptides / Binding of a rabbit serum to looped peptides / Rabbit serum linear peptides / Rabbit serum looped peptides / Binding of a rabbit serum to linear peptides of protein N of SARS-CoV Urbani (Rabbit serum linear peptides) / Binding of a rabbit serum to looped/cyclic peptides of protein N of SARS-CoV Urbani (Rabbit serum looped peptides): unit not given here
[4] = test system: recombinant human anti-SARS-CoV antibody 03-018; assay type: binding; set-up: Binding of antibody 03-018 to linear peptides of the N protein of SARS-CoV Urbani / Binding of antibody 03-018 to looped/cyclic peptides of the N protein of SARS-CoV Urbani: unit not given here

Sequence | Binding of serum 1a to linear peptides of protein N of SARS-CoV Urbani [1] | Binding of serum 1a to looped/cyclic peptides of protein N of SARS-CoV Urbani [1] | Binding of serum 1b to linear peptides of protein N of SARS-CoV Urbani [1] | Binding of serum 1b to looped/cyclic peptides of protein N of SARS-CoV Urbani [1] | Binding of serum 2 to linear peptides of protein N of SARS-CoV Urbani [1] | Binding of serum 2 to looped/cyclic peptides of protein N of SARS-CoV Urbani [1] | Binding of serum 6 to linear peptides of protein N of SARS-CoV Urbani [1] | Binding of serum 6 to looped/cyclic peptides of protein N of SARS-CoV Urbani [1] | Binding of serum 37 to linear peptides of protein N of SARS-CoV Urbani [1] | Binding of serum 37 to looped/cyclic peptides of protein N of SARS-CoV Urbani [1] | Binding of serum 62 to linear peptides of protein N of SARS-CoV Urbani [1] | Binding of serum 62 to looped/cyclic peptides of protein N of SARS-CoV Urbani [1] | Binding of serum London to linear peptides of protein N of SARS-CoV Urbani [1] | Binding of serum London to looped/cyclic peptides of protein N of SARS-CoV Urbani [1] | Binding of serum SARS-green to linear peptides of protein N of SARS-CoV Urbani [1] | Binding of serum SARS-green to looped/cyclic peptides of protein N of SARS-CoV Urbani [1] | Binding of serum SARS-yellow to linear peptides of protein N of SARS-CoV Urbani [1] | Binding of serum SARS-yellow to looped/cyclic peptides of protein N of SARS-CoV Urbani [1] | Binding of antibody 03-018 to linear peptides of the N protein of SARS-CoV Urbani [4] | Binding of antibody 03-018 to looped/cyclic peptides of the N protein of SARS-CoV Urbani [4] | further results
RNPNNNAATVLQLPQ | 0.2 | 0.4 | 0.1 | 0.4 | 0.3 | 0.7 | 0.2 | 0.3 | 0.6 | 0.8 | 0.7 | 0.9 | 0.5 | 0.6 | 0.3 | 0.6 | 0.6 | 0.4 | 0.1 | 0.2 | Binding of Control Serum Blood-Bank to Looped peptides [2]: 0.8; Binding of Control serum Blood-bank to linear peptides [2]: 0.7; Binding of Control serum LUMC to linear peptides [2]: 0.7; Binding of Control serum LUMC to looped peptides [2]: 0.9; Binding of a rabbit serum to linear peptides of protein N of SARS-CoV Urbani (Rabbit serum linear peptides) [3]: 0.1; Binding of a rabbit serum to looped/cyclic peptides of protein N of SARS-CoV Urbani (Rabbit serum looped peptides) [3]: 0.8
RNSTPGSSRGNSPAR | – | 0.4 | – | 0.3 | – | 0.4 | – | 0.3 | – | 0.5 | – | 0.5 | – | 0.5 | – | 0.1 | – | 0.5 | 0.1 | 0.2 | Binding of serum 1a to linear peptide (PEPSCAN-ELISA) [1]: 0.6; Binding of serum 1b to linear peptide (PEPSCAN-ELISA) [1]: 0.3; Binding of serum 2 to linear peptide (PEPSCAN-ELISA) [1]: 0.3; Binding of serum 6 to linear peptide (PEPSCAN-ELISA) [1]: 0.2; Binding of serum 37 to linear peptide (PEPSCAN-ELISA) [1]: 0.7; Binding of serum 62 to linear peptide (PEPSCAN-ELISA) [1]: 0.7; Binding of serum London to linear peptide (PEPSCAN-ELISA) [1]: 0.4; Binding of serum SARS-green to linear peptide (PEPSCAN-ELISA) [1]: 0.4; Binding of serum SARS-yellow to linear peptide (PEPSCAN-ELISA) [1]: 0.7; Binding of Control Serum Blood-Bank to Looped peptides [2]: 0.6; Binding of Control serum Blood-bank to linear peptides [2]: 0.9; Binding of Control serum LUMC to linear peptides [2]: 0.8; Binding of Control serum LUMC to looped peptides [2]: 0.7; Recognition of the peptide by the rabbit serum [3]: recognized
RPKQRRPQGLPNNTA | 0.3 | 0.3 | 0.1 | 0.1 | 0.3 | 0.3 | 0.2 | 0.3 | 0.7 | 0.5 | 0.6 | 0.5 | 0.5 | 0.4 | 0.5 | 0.2 | 0.7 | 0.3 | 0.1 | 0.2 | Binding of Control Serum Blood-Bank to Looped peptides [2]: 0.4; Binding of Control serum Blood-bank to linear peptides [2]: 0.8; Binding of Control serum LUMC to linear peptides [2]: 0.7; Binding of Control serum LUMC to looped peptides [2]: 0.5; Binding of a rabbit serum to linear peptides of protein N of SARS-CoV Urbani (Rabbit serum linear peptides) [3]: 0.4; Binding of a rabbit serum to looped/cyclic peptides of protein N of SARS-CoV Urbani (Rabbit serum looped peptides) [3]: 0.4
RQLQNSMSGASADST | 0.2 | 0.2 | 0.2 | 0.1 | 0.2 | 0.3 | 0.2 | 0.1 | 0.7 | 0.4 | 0.6 | 0.2 | 0.6 | 0.2 | 0.3 | 0.1 | 0.5 | 0.2 | 0.1 | 0.2 | Control Serum Blood-Bank Looped peptides [2]: 0.4; Control serum Blood-bank linear peptides [2]: 0.7; Control serum LUMC linear peptides [2]: 0.6; Control serum LUMC looped peptides [2]: 0.2; Binding of a rabbit serum to linear peptides of protein N of SARS-CoV Urbani (Rabbit serum linear peptides) [3]: 0.5; Binding of a rabbit serum to looped/cyclic peptides of protein N of SARS-CoV Urbani (Rabbit serum looped peptides) [3]: 0.3
